“And” between values parts separate entries of the source, which are not always exact repeats. Equal values may be shown once.
Assays:
[1] = tested on: guinea pig uterus; assay type: cell-based
Text: A female virgin guinea pig that was in oestrous and weighing around 400-500 gm was used for the test. The animal was killed by a stunning blow on the head. The abdomen was immediately cut open. The uterus was dissected out and placed in a petri plate containing aerated De Jalon's solution (M. N Ghosh, in fundamentals of Experimental Pharmacology, 1984, second edition, Scientific book agency, Calcutta). The uterus was freed from fat and the two uterine horns were separated by cutting the lower end. Only one horn was used for the experiment. Two small loops of thread were made at each end of the uterus and kept in a tissue bath of 10 ml capacity containing aerated De Jalon's solution. The lower end was tied to the tissue holder and the upper end to the writing lever. The lever was balanced to provide a tension of 1 g with plasticene. The tissue was left in the bath for ½ hr for stabilisation before starting the experiment and the physiological solution (De Jalon's solution) was renewed every 10 minutes. This example illustrates the procedure used for the preparation of the guinea pig uterus for testing the oxytocic property of the pure white solid, 2-deoxy ecdysterone.
After stabilisation, 2-3 doses of oxytocin (Parke Davis Ltd, Hyderabad) were added as standard to the physiological solution, the dose depending on the amplitude of contraction to obtain uniform contractions. The extract was then added to the bath (50 & 250 μg/ml) and allowed to act for one minute. If a contraction was observed during that one-minute period, extract was considered to be oxytocin-like and having oxytocic property. After every contraction, the tissue was immediately washed twice with the physiological solution and relaxed for 10 minutes. The same procedure was followed for the crude extract, fractions and the purified white solid, identified as 2-deoxy ecdysterone.
The oxytocic activity of the crude, fractions and the pure compound was tested on the guinea pig uterus based on its ability to contract the relaxed uterus. The tissue was spiked with a standard oxytocic agent which induces contraction of the tissue. The efficacy of the testing agent was measured by its ability to contract the uterus by comparing the height of contraction with the standard oxytocin (Table 1). This example illustrates the procedure used for testing the crude extract and the detailed procedure followed.

[2] = radiolabelled compound injected into human volunteers; within 5 hours; cited from earlier work

Molecule | % response compared to standard PGF2α [1] | % response compared to standard oxytocin [1] | Inducing contractions in the guinea pig uterus [1] | Potency compared with standard oxytocin and PGF2α [1] | Radioactivity excreted in the urine [2]
2-deoxy ecdysterone | 69.4% and 82.3% and 114.1% | 80.8% and 92.3% and 118.0% | effective | more potent than the standard oxytocin and PGF2α | –
CCCCC[C@H](O)/C=C/[C@H]1[C@H](O)CC(=O)[C@@H]1C/C=C\CCCC(=O)O [PGE2] | – | – | – | – | about 50%
CCCCC[C@H](O)/C=C/[C@@H]1[C@@H](C/C=C\CCCC(=O)O)[C@@H](O)C[C@H]1O [PGF2α] | – | – | – | – | around 90%
